This note sets out measurements from ChEMBL document CHEMBL4699634, “Series of Novel and Highly Potent Cyclic Peptide PCSK9 Inhibitors Derived from an mRNA Display Screen and Optimized via Structure-Based Design” (J Med Chem, 2020).

SMILES strings stand for the structures. Numbered stars: 1 amine (or outer) side, 2 acyl side, 3 side chain; on linkers, the order of the positions; unused ones are H or OH. Bridge positions count the residues as written; N and C are the ends. Square brackets hold non-standard residues; d marks the D form. Peptide text beside a SMILES is read from it. ξ: configuration not given here. Trp(5-F) = N[C@@H](Cc1c[nH]c2ccc(F)cc12)C(=O)O; Trp(7-aza) = N[C@@H](Cc1c[nH]c2ncccc12)C(=O)O; NMePhe(4-F) = CN[C@@H](Cc1ccc(F)cc1)C(=O)O; Bip = N[C@@H](Cc1ccc(-c2ccccc2)cc1)C(=O)O; NMeW = CN[C@@H](Cc1c[nH]c2ccccc12)C(=O)O; mXylylene = c1cc(C[*:1])cc(C[*:2])c1; Tle = CC(C)(C)[C@H](N)C(=O)O; Nva = CCC[C@H](N)C(=O)O; ξNle = CCCCC(N)C(=O)O; Mpa = O=C(O)CCS Where only a bound is given, the exact number is not on record here.

The assay has as its target PCSK9/LDLR (Homo sapiens, UniProt Q8NBP7). Briefly: Inhibition of avi-tagged-biotinylated human PCSK9 interaction with His-tagged human LDLR EGFa domain by LANCE Ulight Streptavidin based TR-FRET assay. In kind it is protein assay.

Sequence of PCSK9/LDLR (Q8NBP7 31-152 limits assumed): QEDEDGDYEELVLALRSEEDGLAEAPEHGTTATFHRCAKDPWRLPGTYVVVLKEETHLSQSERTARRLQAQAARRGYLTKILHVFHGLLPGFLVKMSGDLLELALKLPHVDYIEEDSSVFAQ
Sequence of PCSK9/LDLR (Q8NBP7 153-692 limits assumed): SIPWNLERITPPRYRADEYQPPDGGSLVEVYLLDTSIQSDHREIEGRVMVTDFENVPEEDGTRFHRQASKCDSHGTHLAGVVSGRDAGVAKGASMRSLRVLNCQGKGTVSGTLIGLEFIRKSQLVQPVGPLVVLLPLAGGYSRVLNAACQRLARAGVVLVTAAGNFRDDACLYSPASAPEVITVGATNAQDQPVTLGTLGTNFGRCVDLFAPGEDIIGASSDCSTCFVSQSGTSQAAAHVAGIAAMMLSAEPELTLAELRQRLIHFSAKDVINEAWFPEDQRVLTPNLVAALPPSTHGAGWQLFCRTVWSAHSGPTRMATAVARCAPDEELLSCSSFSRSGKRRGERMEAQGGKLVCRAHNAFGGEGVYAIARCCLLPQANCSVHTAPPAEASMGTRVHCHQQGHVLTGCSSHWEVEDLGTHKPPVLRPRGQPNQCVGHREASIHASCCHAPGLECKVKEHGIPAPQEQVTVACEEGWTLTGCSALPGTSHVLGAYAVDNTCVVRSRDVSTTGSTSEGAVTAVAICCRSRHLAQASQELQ
Sequence of PCSK9/LDLR (P01130 22-860 partner limits assumed): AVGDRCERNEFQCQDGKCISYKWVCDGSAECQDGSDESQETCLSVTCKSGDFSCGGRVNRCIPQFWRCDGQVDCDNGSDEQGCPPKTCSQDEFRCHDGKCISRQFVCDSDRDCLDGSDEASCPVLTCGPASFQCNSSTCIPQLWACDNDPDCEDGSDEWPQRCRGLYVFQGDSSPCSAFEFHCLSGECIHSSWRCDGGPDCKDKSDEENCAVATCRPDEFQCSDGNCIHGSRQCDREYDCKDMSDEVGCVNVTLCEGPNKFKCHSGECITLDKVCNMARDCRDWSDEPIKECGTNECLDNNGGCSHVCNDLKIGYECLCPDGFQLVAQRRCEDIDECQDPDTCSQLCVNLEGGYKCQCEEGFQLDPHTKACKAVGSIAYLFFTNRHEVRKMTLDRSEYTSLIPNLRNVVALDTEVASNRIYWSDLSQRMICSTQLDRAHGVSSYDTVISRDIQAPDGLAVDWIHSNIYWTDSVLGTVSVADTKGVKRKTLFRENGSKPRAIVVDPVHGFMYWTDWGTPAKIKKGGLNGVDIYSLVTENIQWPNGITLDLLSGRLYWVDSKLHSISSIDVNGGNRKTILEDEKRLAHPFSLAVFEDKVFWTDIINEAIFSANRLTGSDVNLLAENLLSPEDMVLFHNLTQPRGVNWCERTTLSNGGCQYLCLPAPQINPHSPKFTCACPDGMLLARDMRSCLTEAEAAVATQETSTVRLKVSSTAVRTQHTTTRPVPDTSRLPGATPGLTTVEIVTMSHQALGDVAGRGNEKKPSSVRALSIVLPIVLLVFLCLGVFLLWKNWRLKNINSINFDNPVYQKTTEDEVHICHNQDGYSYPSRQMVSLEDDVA

In turn, `NCCCC[C@@H]1NC(=O)CCSCc2cccc(c2)CSC[C@H](C(N)=O)NC(=O)[C@@H]2CCCN2C(=O)[C@H](Cc2ccc(O)cc2)NC(=O)[C@H](Cc2cnc[nH]2)NC(=O)[C@H](CC(=O)O)NC(=O)[C@H](Cc2c[nH]c3ccc(F)cc23)NC(=O)[C@H](Cc2c[nH]c3ccc(F)cc23)NC(=O)CNC1=O` showed a Ki of 2010 nM.

In turn, `C[C@H](O)[C@H]1NC(=O)[C@H](CCCCN)NC(=O)CCSCc2cccc(c2)CSCCNC(=O)[C@]2(C)CCCN2C(=O)[C@H](Cc2ccc(O)cc2)NC(=O)[C@H](Cc2cnc[nH]2)NC(=O)[C@H](CC(=O)O)NC(=O)[C@H](Cc2c[nH]c3ccc(F)cc23)NC(=O)[C@H](Cc2c[nH]c3ccc(F)cc23)NC1=O` registered an inhibitory constant (Ki) of 26.9 nM.

For `NCCCC[C@@H]1NC(=O)CCSCc2cccc(c2)CSC[C@@H](C(N)=O)NC(=O)[C@H]2CCCN2C(=O)[C@H](Cc2ccc(O)cc2)NC(=O)[C@H](Cc2cnc[nH]2)NC(=O)[C@H](CC(=O)O)NC(=O)[C@H](Cc2c[nH]c3ccc(F)cc23)NC(=O)[C@H](Cc2c[nH]c3ccc(F)cc23)NC(=O)CNC1=O`, the Ki was more than 50000 nM.

As for `NCCCC[C@@H]1NC(=O)CCSCc2cccc(c2)CSC[C@@H](C(N)=O)NC(=O)[C@@H]2CCCN2C(=O)[C@@H](Cc2ccc(O)cc2)NC(=O)[C@H](Cc2cnc[nH]2)NC(=O)[C@H](CC(=O)O)NC(=O)[C@H](Cc2c[nH]c3ccc(F)cc23)NC(=O)[C@H](Cc2c[nH]c3ccc(F)cc23)NC(=O)CNC1=O`, the inhibition constant Ki is more than 48000 nM.

In the case of `NCCCC[C@@H]1NC(=O)CCSCc2cccc(c2)CSC[C@@H](C(N)=O)NC(=O)[C@@H]2CCCN2C(=O)[C@H](Cc2ccc(O)cc2)NC(=O)[C@H](Cc2cnc[nH]2)NC(=O)[C@H](CC(=O)O)NC(=O)[C@@H](Cc2c[nH]c3ccccc23)NC(=O)[C@H](Cc2c[nH]c3ccc(F)cc23)NC(=O)CNC1=O`, the Ki was more than 48000 nM.

In turn, `NCCCC[C@H]1NC(=O)CCSCc2cccc(c2)CSC[C@@H](C(N)=O)NC(=O)[C@@H]2CCCN2C(=O)[C@H](Cc2ccc(O)cc2)NC(=O)[C@H](Cc2cnc[nH]2)NC(=O)[C@H](CC(=O)O)NC(=O)[C@H](Cc2c[nH]c3ccc(F)cc23)NC(=O)[C@H](Cc2c[nH]c3ccc(F)cc23)NC(=O)CNC1=O` registered a Ki of 16200 nM.

Turning to `NCCCC[C@@H]1NC(=O)CCSCc2cccc(c2)CSC[C@@H](C(N)=O)NC(=O)[C@@H]2CCCN2C(=O)[C@H](Cc2ccc(O)cc2)NC(=O)[C@@H](Cc2cnc[nH]2)NC(=O)[C@H](CC(=O)O)NC(=O)[C@H](Cc2c[nH]c3ccc(F)cc23)NC(=O)[C@H](Cc2c[nH]c3ccc(F)cc23)NC(=O)CNC1=O`, the Ki was more than 48000 nM.

Regarding `NCCCC[C@@H]1NC(=O)CCSCc2cccc(c2)CSC[C@@H](C(N)=O)NC(=O)[C@@H]2CCCN2C(=O)[C@H](Cc2ccc(O)cc2)NC(=O)[C@H](Cc2cnc[nH]2)NC(=O)[C@H](CC(=O)O)NC(=O)[C@H](Cc2c[nH]c3ccc(F)cc23)NC(=O)[C@@H](Cc2c[nH]c3ccccc23)NC(=O)CNC1=O`, the Ki is more than 48000 nM.

In the case of `NCCCC[C@@H]1NC(=O)CCSCc2cccc(c2)CSC[C@@H](C(N)=O)NC(=O)[C@@H]2CCCN2C(=O)[C@H](Cc2ccc(O)cc2)NC(=O)[C@H](Cc2cnc[nH]2)NC(=O)[C@@H](CC(=O)O)NC(=O)[C@H](Cc2c[nH]c3ccc(F)cc23)NC(=O)[C@H](Cc2c[nH]c3ccc(F)cc23)NC(=O)CNC1=O`, the Ki is more than 48000 nM.

`C[C@@H]1NC(=O)CCSCc2cccc(c2)CSCCNC(=O)[C@]2(C)CCCN2C(=O)[C@H](Cc2ccc(O)cc2)NC(=O)[C@H](Cc2cnc[nH]2)NC(=O)[C@H](CC(=O)O)NC(=O)[C@H](Cc2c[nH]c3ccc(F)cc23)NC(=O)[C@H](Cc2c[nH]c3ccc(F)cc23)NC(=O)[C@@H](CCCCN)NC1=O` showed a Ki of 48.1 nM.

The molecule `CC(=O)N[C@H]1CSCc2cccc(c2)CSC[C@@H](C(N)=O)NC(=O)[C@@H]2CCCN2C(=O)[C@H](Cc2ccc(O)cc2)NC(=O)[C@H](Cc2c[nH]cn2)NC(=O)[C@H](CC(=O)O)NC(=O)[C@H](Cc2c[nH]c3ccc(F)cc23)NC(=O)[C@H](Cc2c[nH]c3ccccc23)NC(=O)CNC(=O)[C@H](CCCCN)NC1=O` (Ac-CKGW[Trp(5-F)]DHYPC-NH2; linker 1-10 via mXylylene) gave a Ki of 103 nM.

Take `CC(=O)N[C@H]1CSCc2cccc(c2)CSC[C@@H](C(N)=O)NC(=O)[C@@H]2CCCN2C(=O)[C@H](Cc2ccc(O)cc2)NC(=O)[C@H](Cc2cnc[nH]2)NC(=O)[C@H](CC(=O)O)NC(=O)[C@H](Cc2c[nH]c3ccccc23)NC(=O)[C@H](Cc2c[nH]c3ccc(F)cc23)NC(=O)CNC(=O)[C@H](CCCCN)NC1=O` (Ac-CKG[Trp(5-F)]WDHYPC-NH2; linker 1-10 via mXylylene): the affinity corresponds to a Ki of 1070 nM.

`CC(=O)N[C@H]1CSCc2cccc(c2)CSC[C@@H](C(N)=O)NC(=O)[C@@H]2CCCN2C(=O)[C@H](Cc2ccc(O)cc2)NC(=O)[C@H](Cc2cnc[nH]2)NC(=O)[C@H](CC(=O)O)NC(=O)[C@H](Cc2c[nH]c3ccc(F)cc23)NC(=O)[C@H](Cc2c[nH]c3ccc(F)cc23)NC(=O)CNC(=O)[C@H](CCCCN)NC1=O` (Ac-CKG[Trp(5-F)][Trp(5-F)]DHYPC-NH2; linker 1-10 via mXylylene): the Ki was determined as 47.1 nM.

Regarding `CC(=O)N[C@@H](Cc1cnc[nH]1)C(=O)N(C)[C@@H](Cc1ccc(F)cc1)C(=O)N[C@H]1CSCc2cccc(c2)CSC[C@@H](C(N)=O)NC(=O)[C@@H]2CCCN2C(=O)[C@H](Cc2ccc(O)cc2)NC(=O)[C@H](Cc2cnc[nH]2)NC(=O)[C@H](CC(=O)O)NC(=O)[C@H](Cc2c[nH]c3ccc(F)cc23)NC(=O)[C@H](Cc2c[nH]c3ccc(F)cc23)NC(=O)CNC(=O)[C@H](CCCCN)NC1=O` (Ac-H[NMePhe(4-F)]CKG[Trp(5-F)][Trp(5-F)]DHYPC-NH2; linker 3-12 via mXylylene), the affinity corresponds to a Ki of 956 nM.

`CCCCC(NC(C)=O)C(=O)N[C@H]1CSCc2cccc(c2)CSC[C@@H](C(N)=O)NC(=O)[C@H]([C@@H](C)O)NC(=O)[C@H](CCC)NC(=O)[C@H](Cc2ccc(O)cc2)NC(=O)[C@H](CCC(=O)O)NC(=O)[C@H](CCC)NC(=O)[C@H](Cc2c[nH]c3ncccc23)NC(=O)[C@H]([C@@H](C)O)NC(=O)[C@H](Cc2cnc[nH]2)NC(=O)[C@H](Cc2ccc(O)cc2)NC(=O)[C@H](C(C)(C)C)NC1=O` (some centres undefined) (Ac-[ξNle]C[Tle]YHT[Trp(7-aza)][Nva]EY[Nva]TC-NH2; linker 2-13 via mXylylene): affinity was put at a Ki of 134 nM.

With `C[C@@H]1NC(=O)[C@H](CCCCN)NC(=O)CCSCc2cccc(c2)CSC[C@@H](C(N)=O)NC(=O)[C@@H]2CCCN2C(=O)[C@H](Cc2ccc(O)cc2)NC(=O)[C@H](Cc2cnc[nH]2)NC(=O)[C@H](CC(=O)O)NC(=O)[C@H](Cc2c[nH]c3ccc(F)cc23)NC(=O)[C@H](Cc2c[nH]c3ccc(F)cc23)NC1=O` ([Mpa]KA[Trp(5-F)][Trp(5-F)]DHYPC-NH2; linker 1-10 via mXylylene), the inhibition constant (Ki) is more than 48000 nM.

Regarding `C[C@@H]1NC(=O)CNC(=O)[C@H](CCCCN)NC(=O)CCSCc2cccc(c2)CSC[C@@H](C(N)=O)NC(=O)[C@@H]2CCCN2C(=O)[C@H](Cc2ccc(O)cc2)NC(=O)[C@H](Cc2cnc[nH]2)NC(=O)[C@H](CC(=O)O)NC(=O)[C@H](Cc2c[nH]c3ccc(F)cc23)NC1=O` ([Mpa]KGA[Trp(5-F)]DHYPC-NH2; linker 1-10 via mXylylene), the Ki stood at 656 nM.

`NCCCC[C@@H]1NC(=O)CCSCc2cccc(c2)CSC[C@@H](C(N)=O)NC(=O)[C@@H]2CCCN2C(=O)[C@H](Cc2ccc(O)cc2)NC(=O)[C@H](Cc2c[nH]cn2)NC(=O)[C@H](CC(=O)O)NC(=O)[C@H](Cc2c[nH]c3ccc(F)cc23)NC(=O)[C@H](Cc2ccc(-c3ccccc3)cc2)NC(=O)CNC1=O` ([Mpa]KG[Bip][Trp(5-F)]DHYPC-NH2; linker 1-10 via mXylylene) had a Ki of 29300 nM.

For the molecule `CN1C(=O)CNC(=O)[C@H](CCCCN)NC(=O)CCSCc2cccc(c2)CSC[C@@H](C(N)=O)NC(=O)[C@@H]2CCCN2C(=O)[C@H](Cc2ccc(O)cc2)NC(=O)[C@H](Cc2cnc[nH]2)NC(=O)[C@H](CC(=O)O)NC(=O)[C@H](Cc2c[nH]c3ccc(F)cc23)NC(=O)[C@@H]1Cc1c[nH]c2ccccc12` ([Mpa]KG[NMeW][Trp(5-F)]DHYPC-NH2; linker 1-10 via mXylylene), the Ki was more than 48000 nM.

`C[C@@H]1NC(=O)[C@H](Cc2c[nH]c3ccc(F)cc23)NC(=O)CNC(=O)[C@H](CCCCN)NC(=O)CCSCc2cccc(c2)CSC[C@@H](C(N)=O)NC(=O)[C@@H]2CCCN2C(=O)[C@H](Cc2ccc(O)cc2)NC(=O)[C@H](Cc2cnc[nH]2)NC(=O)[C@H](CC(=O)O)NC1=O` ([Mpa]KG[Trp(5-F)]ADHYPC-NH2; linker 1-10 via mXylylene) yielded a Ki of more than 48000 nM.

For the molecule `CN1C(=O)[C@H](Cc2c[nH]c3ccc(F)cc23)NC(=O)CNC(=O)[C@H](CCCCN)NC(=O)CCSCc2cccc(c2)CSC[C@@H](C(N)=O)NC(=O)[C@@H]2CCCN2C(=O)[C@H](Cc2ccc(O)cc2)NC(=O)[C@H](Cc2cnc[nH]2)NC(=O)[C@H](CC(=O)O)NC(=O)[C@@H]1Cc1c[nH]c2ccccc12` ([Mpa]KG[Trp(5-F)][NMeW]DHYPC-NH2; linker 1-10 via mXylylene), the Ki was more than 48000 nM.

For `C[C@@H]1NC(=O)[C@H](Cc2c[nH]c3ccc(F)cc23)NC(=O)[C@H](Cc2c[nH]c3ccc(F)cc23)NC(=O)CNC(=O)[C@H](CCCCN)NC(=O)CCSCc2cccc(c2)CSC[C@@H](C(N)=O)NC(=O)[C@@H]2CCCN2C(=O)[C@H](Cc2ccc(O)cc2)NC(=O)[C@H](Cc2cnc[nH]2)NC1=O` ([Mpa]KG[Trp(5-F)][Trp(5-F)]AHYPC-NH2; linker 1-10 via mXylylene), the Ki is 427 nM.

In turn, `C[C@@H]1NC(=O)[C@H](CC(=O)O)NC(=O)[C@H](Cc2c[nH]c3ccc(F)cc23)NC(=O)[C@H](Cc2c[nH]c3ccc(F)cc23)NC(=O)CNC(=O)[C@H](CCCCN)NC(=O)CCSCc2cccc(c2)CSC[C@@H](C(N)=O)NC(=O)[C@@H]2CCCN2C(=O)[C@H](Cc2ccc(O)cc2)NC1=O` ([Mpa]KG[Trp(5-F)][Trp(5-F)]DAYPC-NH2; linker 1-10 via mXylylene) showed a Ki of 525 nM.

Molecule `C[C@@H]1NC(=O)[C@H](Cc2cnc[nH]2)NC(=O)[C@H](CC(=O)O)NC(=O)[C@H](Cc2c[nH]c3ccc(F)cc23)NC(=O)[C@H](Cc2c[nH]c3ccc(F)cc23)NC(=O)CNC(=O)[C@H](CCCCN)NC(=O)CCSCc2cccc(c2)CSC[C@@H](C(N)=O)NC(=O)[C@@H]2CCCN2C1=O` ([Mpa]KG[Trp(5-F)][Trp(5-F)]DHAPC-NH2; linker 1-10 via mXylylene) returned a Ki of more than 48000 nM.
